Test [1] concerns PBMCs from breast cancer patient OBCR25. The experiment in a line: proliferation assay (3H-thymidine) with h5T4 class II peptide pools and peptides. Type of test: cell-based, human. Conditions: PBMCs of breast cancer patient OBCR25, 6 days incubation, 3H-thymidine pulse overnight. As for the experimental part: FIG. 1 is a schematic diagram illustrating the proliferation assay for measuring cellular responses
A h5T4 peptide library was produced consisting of 51 20 mer peptides overlapping by […]. Class II peptide pools containing 5 peptides per pool were incubated with PBMCs from breast cancer patients OBCR24 and OBCR25 and proliferation was measures using the assay illustrated in FIG. 1. After 6 days incubation, cells were pulsed overnight with ^3H-thymidine and incubated overnight at 37° C.

The test system of test [2] is PBMCs from OBCR25. Briefly: IFNγ ELISPOT assay after restimulation in vitro with h5T4 peptides. Type of test: cell-based, human. Conditions: PBMCs from OBCR25 restimulated in vitro with h5T4 peptides. The protocol:
FIG. 2 is a schematic diagram illustrating the ELISPOT assay for measuring antigen-specific IFNγ production.
To measure antigen-specific IFNγ production, an ELISPOT assay was conducted following the general scheme illustrated in FIG. 2.

With “YRYEINADPRLTNLSSNSDV (listed as Homo sapiens) [peptide #51, extreme C-terminal 20 amino acids (401-420) of h5T4; 20 mer peptide of pool #10]”, the proliferative response entry in test [1] is “positive response”. In test [2], the “IFNγ ELISPOT response” value is reported as “positive ELISPOT response”.

(Values after patent US7910109B2, “MHC class II epitopes of 5T4 antigen” (Oxford Biomedica (UK) Ltd., priority 2002, dated 2011).)
